What was measured:
[1] = tissue distribution (TD) assay in mouse, brain and plasma; format: in vivo, male C57BL/6 mouse
[2] = brain and plasma concentration in rat cuprizone model after 21 days repeat administration; format: in vivo; settings: 21 days repeat administration 30 or 100 μg/kg, 4 hours post-final dose
Protocol: In vivo brain exposure of active compound compared to prodrug was assessed via tissue distribution (TD) assay in mouse and rat cuprizone model, measured as brain exposure ratio of brain to plasma following thyromimetic treatment. […] Table 3 also depicts brain-to-plasma AUC ratio.

CC(C)c1c(O)ccc(Cc2c(Cl)cc(OCC(=O)O)cc2Cl)c1F [LL-341070A]
AUC ([1]; male, C57BL/6, mouse, plasma, po, 100 ug/kg): 35.8 ng·h/mL
Brain AUC ([1]; single PO 100 μg/kg, male C57BL/6 mouse, AUC 0-24 hr): 73.9 ng·h/mL
brain exposure compared to prodrug LL-341070 [2]: enhanced brain exposure

Reference: patent publication US20250302775A1, “METHODS FOR THE TREATMENT OF DEPRESSION” (Autobahn Therapeutics, Inc., priority 2022, published 2025)
